Source: patent US6689574B1, “Assays for nuclear receptor agonists and antagonists using fluorescence resonance energy transfer” (Merck & Co., Inc., priority 1997, dated 2004)

Columns and labels:
Format in all cases: biochemical
GST-hPPARγ1LBD = target: T1, GST-hPPARγ1LBD (Homo sapiens, UniProt P37231); experiment: FRET assay, biotin-hCBP1-453 with SA-XL665, GST-hPPARγ1LBD and Eu3+K-labeled anti-GST antibody (experiment 4); details: HEPES + 0.05% CHAPS, 1 μM AD5075, ratio 665 nm/620 nm
T1 construct: amino acids 176-478 of PPARγ1; made in house; host or cells: E. coli (DH5α)
Procedure: To further improve the signal to noise ratio, a series of experiments were conducted. Experiment 4 of Table 1 exemplifies 5 results obtained from those efforts. cDNA encoding a longer fragment of hCBP was cloned and expressed to get hCBP1-453. hCBP1-453 was biotinylated. Biotin-labeled hCBP1-453 (25 nM), SA-XL665 (100 nM), GST-hPPARγ1LBD (1 nM), and Eu3+K-labeled anti-GST antibody (2 nM) were mixed together in the presence or absence of 1 μM AD5075. […] A three- to four-fold signal-noise ratio was obtained.

PPARγ = target: T2, PPARγ (Homo sapiens, UniProt P37231); experiment: Titration of known PPARγ agonists in the CBP/PPARγ FRET assay (FIG. 5); details: derived from FIG. 5; agonist-induced CBP-PPARγ FRET
T2 construct: amino acids 176-478 of PPARγ1; GST (N); made in house; host or cells: E. coli (DH5α)

PPARγ1LBD [1] = target: T3, PPARγ1LBD (Homo sapiens, UniProt P37231); experiment: FRET assay, Eu3+K-labeled hCBP1-113 with biotin-hPPARγ1LBD and SA-XL665 (experiments 1 and 2); parameters: amino acids 176-478 of PPARγ1; GST (N, cleaved yes); made in house; host or cells: E. coli (DH5α); details: 1 μM AD5075, ratio 665 nm/620 nm
Source text: Experiments were first conducted using hCBP1-113 and hPPARγ1LBD. Purified hPPARγ1LBD was biotinylated with Sulfo-NHS-LC-Biotin (PIERCE) to a biotin:hPPARγ1LBD ratio of 3:1 according to the procedure provided by PIERCE. Purified hCBP1-113 was directly labeled with europium cryptate (Eu3+K) by the method illustrated in FIG. 1.
Thus, this experimental format made use of the fluorescent reagent pair europium cryptate (Eu3+K), which acted as donor, and XL665, which acted as acceptor. hCBP1-113 was directly labeled with europium cryptate (Eu3+K); hPPARγ12LBD was indirectly labeled with XL665 by means of a biotin-streptavidin link. The emission maximum of europium cryptate (Eu3+K) overlaps with the absorption maximum of XL665. Therefore, when europium cryptate (Eu3+K) and XL665 are in close proximity, and the sample is illuminated with light at 337 nm (the absorption maximum of europium cryptate (Eu3+K)), FRET can occur between europium cryptate (Eu3+K) and XL665. This FRET manifests itself as increased emission at 665 nm by XL665. […] When agonist is bound to hPPARγ1LBD, a specific interaction occurs between hPPARγ1LBD and hCBP1-113, thus bringing europium cryptate (Eu3+K) and XL665 into close enough proximity for FRET to occur. […]

PPARγ1LBD [2] = target: T3, PPARγ1LBD; experiment: FRET assay, GST-hCBP1-113 with Eu3+K-labeled anti-GST antibody, biotin-hPPARγ1LBD and SA-XL665 (experiment 3); parameters: amino acids 176-478 of PPARγ1; GST (N, cleaved yes); made in house; host or cells: E. coli (DH5α); details: HEPES + 0.05% NP40, 1 μM AD5075, ratio 665 nm/620 nm
Procedure: In order to get an even better signal-noise ratio, the above-described format was modified slightly for experiment 3. In experiment 3, SA-XL665 (500 nM), biotin-labeled hPPARγ1LBD (100 nM), GST-hCBP1-113, and Eu3+K labeled anti-GST antibody (2.5 μl) were incubated in the presence or absence of AD5075 (1 μM) in HEPES buffer containing 0.05% NP40. A two-fold signal- noise ratio was obtained.
The anti-GST antibody was a goat antibody to GST from Pharmacia (catalogue number 27-4577-01) that was labeled with Eu3+K according to the procedure summarized below. [drawing 2]

T3 sequence (P37231 204-505): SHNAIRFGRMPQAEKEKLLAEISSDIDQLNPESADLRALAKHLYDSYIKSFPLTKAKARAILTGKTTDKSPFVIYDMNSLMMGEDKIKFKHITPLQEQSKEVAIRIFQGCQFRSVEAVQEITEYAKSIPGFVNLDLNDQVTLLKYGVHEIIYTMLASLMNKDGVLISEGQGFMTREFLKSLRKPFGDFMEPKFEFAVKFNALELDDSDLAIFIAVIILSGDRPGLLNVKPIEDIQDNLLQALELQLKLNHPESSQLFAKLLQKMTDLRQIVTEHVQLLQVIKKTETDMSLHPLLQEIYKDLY
T3 sequence (Q92793 1-113 partner): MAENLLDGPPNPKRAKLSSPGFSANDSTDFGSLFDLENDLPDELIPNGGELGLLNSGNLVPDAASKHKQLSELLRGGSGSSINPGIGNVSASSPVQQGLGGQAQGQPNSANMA
T1 sequence (P37231 204-505): as the sequence (P37231 204-505) above
T1 sequence (Q92793 1-453 partner): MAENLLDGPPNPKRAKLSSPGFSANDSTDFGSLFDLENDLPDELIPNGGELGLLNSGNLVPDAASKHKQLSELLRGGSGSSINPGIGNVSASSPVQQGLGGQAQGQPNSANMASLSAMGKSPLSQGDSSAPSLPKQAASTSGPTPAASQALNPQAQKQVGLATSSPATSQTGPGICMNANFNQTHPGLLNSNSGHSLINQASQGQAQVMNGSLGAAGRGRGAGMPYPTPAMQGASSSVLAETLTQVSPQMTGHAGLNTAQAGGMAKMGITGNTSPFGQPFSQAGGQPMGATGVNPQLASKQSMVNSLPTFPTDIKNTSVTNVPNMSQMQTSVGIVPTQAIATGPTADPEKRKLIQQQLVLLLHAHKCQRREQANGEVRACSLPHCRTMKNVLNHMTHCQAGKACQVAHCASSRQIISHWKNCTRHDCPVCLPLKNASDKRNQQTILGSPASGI
T2 sequence (P37231 204-505 limits assumed): as the sequence (P37231 204-505) above
T2 sequence (Q92793 1-453 partner limits assumed): as the sequence (Q92793 1-453 partner) above

Cc1oc(-c2ccccc2)nc1C(O)COc1ccc(CC2SC(=O)NC2=O)cc1 (centres unmarked) [AD5075]
Emission ratio with AD5075 (GST-hPPARγ1LBD): 1883 | EC50 (PPARγ): 8 nM | Emission ratio with AD5075 (PPARγ1LBD [1]; Experiment 1, PBS buffer): 1134 | Emission ratio with AD5075 (PPARγ1LBD [1]; Experiment 2, HEPES + 0.05% NP40): 967 | Emission ratio with AD5075 (PPARγ1LBD [2]): 1078
